Reference: PubChem BioAssay (NCI)
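Five compound concentrations were applied to cells in 96-well plates for 48 hours; endpoints were derived by simple linear interpolation of the resulting dose-response curve. Abbreviation: GI50, concentration required for 50% inhibition of growth. TGI marks complete inhibition of growth.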

Key:
Experiment in all cases: NCI-60 cell line screen, 48 h
786-0 renal = system: 786-0 renal
A549 NSCLC = system: A549 NSCLC
ACHN renal = system: ACHN renal
BT-549 breast = system: BT-549 breast
CAKI-1 renal = system: CAKI-1 renal
CCRF-CEM leukemia = system: CCRF-CEM leukemia
COLO 205 colon = system: COLO 205 colon
DU-145 prostate = system: DU-145 prostate
EKVX NSCLC = system: EKVX NSCLC
HCC-2998 colon = system: HCC-2998 colon
HCT-116 colon = system: HCT-116 colon
HCT-15 colon = system: HCT-15 colon
HL-60(TB) leukemia = system: HL-60(TB) leukemia
HOP-62 NSCLC = system: HOP-62 NSCLC
HOP-92 NSCLC = system: HOP-92 NSCLC
HT29 colon = system: HT29 colon
IGROV1 ovarian = system: IGROV1 ovarian
K-562 leukemia = system: K-562 leukemia
KM12 colon = system: KM12 colon
LOX IMVI melanoma = system: LOX IMVI melanoma
M14 melanoma = system: M14 melanoma
MALME-3M melanoma = system: MALME-3M melanoma
MCF7 breast = system: MCF7 breast
MDA-MB-231 breast = system: MDA-MB-231 breast
MDA-MB-435 = system: MDA-MB-435
MOLT-4 leukemia = system: MOLT-4 leukemia
NCI-H226 lung = system: NCI-H226 lung

CC(=O)N1CCN(C2=Nc3ccccc3CO2)C1=S
GI50 (786-0 renal): > 100 µM
TGI (786-0 renal): > 100 µM
GI50 (A549 NSCLC): > 100 µM
TGI (A549 NSCLC): > 100 µM
GI50 (ACHN renal): > 100 µM
TGI (ACHN renal): > 100 µM
GI50 (BT-549 breast): 40.1 µM
TGI (BT-549 breast): > 100 µM
GI50 (CAKI-1 renal): > 100 µM
TGI (CAKI-1 renal): > 100 µM
GI50 (CCRF-CEM leukemia): 32.9 µM
TGI (CCRF-CEM leukemia): > 100 µM
GI50 (COLO 205 colon): > 100 µM
TGI (COLO 205 colon): > 100 µM
GI50 (DU-145 prostate): > 100 µM
TGI (DU-145 prostate): > 100 µM
GI50 (EKVX NSCLC): 45.1 µM
TGI (EKVX NSCLC): > 100 µM
GI50 (HCC-2998 colon): 26.9 µM
TGI (HCC-2998 colon): 97.2 µM
GI50 (HCT-116 colon): 89.8 µM
TGI (HCT-116 colon): > 100 µM
GI50 (HCT-15 colon): 57.8 µM
TGI (HCT-15 colon): > 100 µM
GI50 (HL-60(TB) leukemia): 59.7 µM
TGI (HL-60(TB) leukemia): > 100 µM
GI50 (HOP-62 NSCLC): > 100 µM
TGI (HOP-62 NSCLC): > 100 µM
GI50 (HOP-92 NSCLC): 34 µM
TGI (HOP-92 NSCLC): > 100 µM
GI50 (HT29 colon): 89.6 µM
TGI (HT29 colon): > 100 µM
GI50 (IGROV1 ovarian): 18.3 µM
TGI (IGROV1 ovarian): 58.1 µM
GI50 (K-562 leukemia): 46.5 µM
TGI (K-562 leukemia): > 100 µM
GI50 (KM12 colon): > 100 µM
TGI (KM12 colon): > 100 µM
GI50 (LOX IMVI melanoma): 52.4 µM
TGI (LOX IMVI melanoma): > 100 µM
GI50 (M14 melanoma): 51.3 µM
TGI (M14 melanoma): > 100 µM
GI50 (MALME-3M melanoma): 26 µM
TGI (MALME-3M melanoma): 89 µM
GI50 (MCF7 breast): 38.2 µM
TGI (MCF7 breast): > 100 µM
GI50 (MDA-MB-231 breast): > 100 µM
TGI (MDA-MB-231 breast): > 100 µM
GI50 (MDA-MB-435): 81.4 µM
TGI (MDA-MB-435): > 100 µM
GI50 (MOLT-4 leukemia): 41.9 µM
TGI (MOLT-4 leukemia): > 100 µM
GI50 (NCI-H226 lung): > 100 µM
TGI (NCI-H226 lung): > 100 µM
